# From patent US5703113A, “Benzopyran derivatives” (priority 1992, dated 1997)
# Experiments:
# [1] = system: normotensive rats; assay: Decrease of blood pressure on normotensive rats measured by average arterial tension; format: in vivo, Wistar rats; design: Pulse: unit not given beside the values; Average arterial tension / Decrease (of average arterial tension): unit not given here
# Procedure: 2. Decrease of blood pressure on normotensive rats measured by average arterial tension
# Wistar rats of both sexes weighing 230-260 g were used in the experiments. The rats were narcotised by 40 mg/kg of pentobarbital. The trachea was mounted and a polyethylene canula was introduced into the trachea, vena jugularis sinester and to the arteria carotis communis sinester. The substances to be examined were introduced into the organism of the animal through the duodenum. The pulsatory, systolic and diastolic blood pressure and the pulse were continuously measured by using a Statham type tensiometer head and haemodynamic measuring system produced by the Hungarian firm Experimetria Kft. After the blood pressure has become stable 0.75 μg of adrenaline were administered intravenously to measure the effect of alpha-adrenergic receptors on the blood pressure. After the hypertension has ceased 0.1 μg/kg of isoproterenole is added in order to characterize the activity of the β-adrenerg receptors. After tachycardia has ceased the test compound was administered i.d. and the treatment with the receptor stimulants was repeated after an hour in order to characterize the effect of the test compound on adrenergic receptor subclasses.
# Change of the blood pressure on normotensive rats measured on six test animals
# [2] = system: potassium canal (isolated arteria mesenterica anterior); assay: Potassium canal binding ("bandage") and selectivity on isolated arteria mesenterica anterior of rabbits; conditions: isolated rabbit mesenteric artery; KCl vs adrenaline contraction, TEA medium
# Procedure: 1. […] Rabbits of both sexes weighing 2000-2500 g were anesthetized by a hit at the nape, the abdominal wall was cut open and the arteria mesenterica anterior was mounted after exsanguination. The artery was put into a Krebs solution of a temperature of 37° C. infiltrated with carbogene while removing the interstitial residues. Then a 2 mm wide spiral is cut from the artery and this artery stripe is prestretched in an organ pot in Krebs solution of a temperature of 37° C., infiltrated with carbogene, by a stretching of 0.5 g. In the experiment Hugo Basile type dynamometer heads, Hugo Basile type amplifiers and Perkin Elmer type potentiometer have been used for amplifying and fixing the signs. Two parallel organs were used for the qualitative tests. One of them was contracted by adding 30 mmoles of KCl after an incubation time of 1 hour, the other one by 5 μmoles of adrenaline. Then the arteries were relaxed by the cumulative addition of the substance to be examined. The system was washed with a Krebs solution containing 30 mmoles of tetraethyl ammonium bromide (TEA) and the organs were incubated for 30 minutes in a TEA-containing medium. After incubation the organs were again contracted with potassium and noradrenaline and a dilatation was induced by using the substance to be examined. In a quantitative test organs contracted with 5 μmoles of noradrenaline were relaxed with the substance to be examined and the dose inducing a 50% dilatation was determined.
# [3] = 5 mg/kg i.d., time 0 min (baseline)
# [4] = 1 mg/kg i.d., time 0 min (baseline)
# [5] = 10 mg/kg i.d., time 0 min (baseline)
Mechanism of effect [2],Selectivity [2],Compound,"Average arterial tension [1, 4]","Pulse [1, 4]","Average arterial tension ([1]; 1 mg/kg i.d., time 1 min)","Decrease (of average arterial tension) ([1]; 1 mg/kg i.d., time 1 min)","Pulse ([1]; 1 mg/kg i.d., time 1 min)","Average arterial tension ([1]; 1 mg/kg i.d., time 10 min)","Decrease (of average arterial tension) ([1]; 1 mg/kg i.d., time 10 min)","Pulse ([1]; 1 mg/kg i.d., time 10 min)","Average arterial tension ([1]; 1 mg/kg i.d., time 30 min)","Decrease (of average arterial tension) ([1]; 1 mg/kg i.d., time 30 min)","Pulse ([1]; 1 mg/kg i.d., time 30 min)","Average arterial tension ([1]; 1 mg/kg i.d., time 60 min)","Decrease (of average arterial tension) ([1]; 1 mg/kg i.d., time 60 min)","Pulse ([1]; 1 mg/kg i.d., time 60 min)",further results
Potassium canal activator,selective,"COc1cc2c(cc1Cl)[C@@H](N1CCCC1=O)[C@H](O)C(C)(C)O2 (racemic) [Example 10, (+/-)-6-chloro-7-methoxy-3,4-dihydro-2,2-dimethyl-trans-4-(2-oxo-1-pyrrolidinyl)-2H-benzo (b) pyran-3-ol]",–,–,–,–,–,–,–,–,–,–,–,–,–,–,"Average arterial tension [1, 3]: 108 ± 15; Pulse [1, 3]: 402 ± 4; Average arterial tension ([1]; 5 mg/kg i.d., time 1 min): 62 ± 3; Decrease (of average arterial tension) ([1]; 5 mg/kg i.d., time 1 min): -46; Pulse ([1]; 5 mg/kg i.d., time 1 min): 418 ± 18; Average arterial tension ([1]; 5 mg/kg i.d., time 10 min): 68 ± 6; Decrease (of average arterial tension) ([1]; 5 mg/kg i.d., time 10 min): -40; Pulse ([1]; 5 mg/kg i.d., time 10 min): 436 ± 18; Average arterial tension ([1]; 5 mg/kg i.d., time 30 min): 96 ± 15; Decrease (of average arterial tension) ([1]; 5 mg/kg i.d., time 30 min): -12; Pulse ([1]; 5 mg/kg i.d., time 30 min): 424 ± 10; Average arterial tension ([1]; 5 mg/kg i.d., time 60 min): 109 ± 26; Decrease (of average arterial tension) ([1]; 5 mg/kg i.d., time 60 min): +1; Pulse ([1]; 5 mg/kg i.d., time 60 min): 396 ± 13"
Potassium canal activator,selective,COc1cc2c(cc1[N+](=O)[O-])[C@@H](N1CCCC1=O)[C@H](O)C(C)(C)O2 (relative stereo) [Example 11],121 ± 21,388 ± 10,115 ± 11,-6,373 ± 15,97 ± 23,-24,394 ± 20,105 ± 18,-16,382 ± 18,107 ± 12,-14,382 ± 18,–
Potassium canal activator,selective,"COc1cc2c(cc1OC)[C@@H](N1CCCC1=O)[C@H](O)C(C)(C)O2 (racemic) [Example 1, (+/-)-6,7-dimethoxy-3,4-dihydro-2,2-dimethyl-trans-4-(2-oxo-1-pyrrolidinyl)-2H-benzo(b)pyran-3-ol]",107 ± 11,394 ± 27,56 ± 6,-51,403 ± 34,56 ± 6,-51,400 ± 31,49 ± 4,-45,400 ± 31,71 ± 20,-36,382 ± 31,–
Potassium canal activator,selective,"COc1cc2c(cc1C#N)[C@@H](N1CCCC1=O)[C@H](O)C(C)(C)O2 (racemic) [Example 15, (+/-)-6-cyano-7-methoxy-3,4-dihydro-2,2-dimethyl-trans-4-(2-oxo-1-pyrrolidinyl)-2H-benzo (b) pyran-3-ol]",125 ± 13,412 ± 45,92 ± 10,-33,439 ± 42,103 ± 5,-22,430 ± 45,118 ± 15,-7,430 ± 45,122 ± 10,-3,412 ± 37,–
Potassium canal activator,selective,"COc1cc2c(cc1Br)[C@@H](N1CCCC1=O)[C@H](O)C(C)(C)O2 (relative stereo) [Example 9, (+/-) 16-bromo-7-methoxy-3,4-dihydro-2,2-dimethyl-trans-4-(2-oxo-1-pyrrolidinyl)-2H-benzo (b) pyran-3-ol]",–,–,–,–,–,–,–,–,–,–,–,–,–,–,"Average arterial tension [1, 5]: 117 ± 19; Pulse [1, 5]: 406 ± 51; Average arterial tension ([1]; 10 mg/kg i.d., time 1 min): 119 ± 16; Decrease (of average arterial tension) ([1]; 10 mg/kg i.d., time 1 min): +2; Pulse ([1]; 10 mg/kg i.d., time 1 min): 406 ± 51; Average arterial tension ([1]; 10 mg/kg i.d., time 10 min): 58 ± 5; Decrease (of average arterial tension) ([1]; 10 mg/kg i.d., time 10 min): -59; Pulse ([1]; 10 mg/kg i.d., time 10 min): 436 ± 62; Average arterial tension ([1]; 10 mg/kg i.d., time 30 min): 65 ± 15; Decrease (of average arterial tension) ([1]; 10 mg/kg i.d., time 30 min): -52; Pulse ([1]; 10 mg/kg i.d., time 30 min): 430 ± 63; Average arterial tension ([1]; 10 mg/kg i.d., time 60 min): 87 ± 18; Decrease (of average arterial tension) ([1]; 10 mg/kg i.d., time 60 min): -30; Pulse ([1]; 10 mg/kg i.d., time 60 min): 430 ± 63"

Compound,Mechanism of effect [2],Selectivity [2],"Average arterial tension [1, 4]","Pulse [1, 4]","Average arterial tension ([1]; 1 mg/kg i.d., time 1 min)","Decrease (of average arterial tension) ([1]; 1 mg/kg i.d., time 1 min)","Pulse ([1]; 1 mg/kg i.d., time 1 min)","Average arterial tension ([1]; 1 mg/kg i.d., time 10 min)","Decrease (of average arterial tension) ([1]; 1 mg/kg i.d., time 10 min)","Pulse ([1]; 1 mg/kg i.d., time 10 min)","Average arterial tension ([1]; 1 mg/kg i.d., time 30 min)","Decrease (of average arterial tension) ([1]; 1 mg/kg i.d., time 30 min)","Pulse ([1]; 1 mg/kg i.d., time 30 min)","Average arterial tension ([1]; 1 mg/kg i.d., time 60 min)","Decrease (of average arterial tension) ([1]; 1 mg/kg i.d., time 60 min)","Pulse ([1]; 1 mg/kg i.d., time 60 min)",further results
"CC1(C)Oc2ccc(C#N)cc2C(N2CCCC2=O)C1O (stereo not drawn) [BRL 34915, reference compound]",Potassium canal activator,selective,112 ± 9,368 ± 44,45 ± 2,-67,368 ± 31,45 ± 2,-67,382 ± 25,49 ± 4,-63,377 ± 19,61 ± 11,-51,373 ± 12,–
